Like-named read-outs stand apart in the source and are kept apart here.
Biological target: T1, human CCR7 (Homo sapiens, UniProt P32248)
T1 construct: expressed in transfected cells
T1 sequence (P32248 25-378): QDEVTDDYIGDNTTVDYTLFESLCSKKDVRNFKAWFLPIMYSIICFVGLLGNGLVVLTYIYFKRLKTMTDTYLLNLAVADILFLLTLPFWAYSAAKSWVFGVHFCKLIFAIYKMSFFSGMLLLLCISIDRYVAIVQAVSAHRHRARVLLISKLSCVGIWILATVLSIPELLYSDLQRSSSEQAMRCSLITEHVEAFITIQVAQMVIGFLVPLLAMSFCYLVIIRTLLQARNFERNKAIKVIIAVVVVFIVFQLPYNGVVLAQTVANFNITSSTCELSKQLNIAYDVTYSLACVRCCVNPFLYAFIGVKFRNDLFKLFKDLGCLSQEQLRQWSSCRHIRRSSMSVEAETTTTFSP
Assay: CCL19-induced calcium mobilization assay, U87.CD4 cells expressing CCR7
Format: cell-based
Conditions: for IC50: read-out: IC50 [μM] block CCL19 induced calcium signaling
Protocol: U87.CD4 cells that stably express either human CCR7, CXCR2, CCR5 or CXCR4 were seeded (20,000 cells/well) in gelatin-coated black-walled polystyrene 96-well plates with clear bottom and incubated overnight at 37°C and 5% CO2. […] Culture medium was removed, and cells were incubated for 45 min at room temperature in the dark. […] Exactly the same protocol was used to record calcium responses in Chinese hamster ovary (CHO)-K1 cells, upon stimulation with adenosine triphosphate (ATP, purchased from Sigma).

[1] = CCL19 induced calcium signaling
[2] = classification as decoy or active on CCR7
[3] = CCL19-induced calcium signaling
[4] = classification of tested compounds as decoy or active

Compound	IC50 [1]	Decoy – 0 Active – 1 [2]	IC50 [3]	Decoy – 0 Active – 1 [4]
CCn1cccc(NC(=O)N2CC(Cc3ccccc3Br)C2)c1=O [C079, CCn1cccc(NC(=O)N2CC(Cc3ccccc3Br)C2)c1=O]	–	–	> 50 µM	0
COc1ccc(S(=O)(=O)N2CC(C(=O)Nc3ccccc3)Oc3ccccc32)cc1 (centres unmarked) [C265, COc1ccc(cc1)S(=O)(=O)N2CC(Oc3c2cccc3)C(=O)Nc4ccccc4]	> 50 µM	0	–	–
COc1c(Nc2cc(C(F)(F)F)cc(C(F)(F)F)c2)c(=O)c1=O [C025, O=C1C(OC)=C(NC2=CC(C(F)(F)F)=CC(C(F)(F)F)=C2)C1=O]	–	–	> 30 µM	0
COC(=O)c1sccc1Nc1c(NC2CCCCC2)c(=O)c1=O [C006, COC(=O)c1sccc1Nc1c(NC2CCCCC2)c(=O)c1=O]	–	–	> 50 µM	0
FC(F)(F)c1ccccc1NC(=S)Nc1ccc(OCc2ccccc2)cc1 [C035, FC(F)(F)c1ccccc1NC(=S)Nc1ccc(OCc2ccccc2)cc1]	–	–	> 30 µM	0
CN(C)CCNC(=S)Nc1cc(C(F)(F)F)cc(C(F)(F)F)c1 [C041, S=C(NCCN(C)C)NC1=CC(C(F)(F)F)=CC(C(F)(F)F)=C1]	–	–	> 50 µM	0
CN(C)[C@@H]1CCCC[C@H]1Nc1c(NCc2cc(C(F)(F)F)cc(C(F)(F)F)c2)c(=O)c1=O [C021, CN(C)[C@@H]1CCCC[C@H]1NC(C2=O)=C(NCC3=CC(C(F)(F)F)=CC(C(F)(F)F)=C3)C2=O]	–	–	> 50 µM	0
CN1CCN(CCC2CCCCN2Cc2nc3ccccc3[nH]2)CC1 (centres unmarked) [C275, CN1CCN(CCC2CCCCN2Cc2nc3ccccc3[nH]2)CC1]	> 50 µM	0	–	–
FC(F)(F)c1cccc(Cn2cnc(NC(=S)NCCc3ccccc3)n2)c1 [C027, FC(F)(F)c1cccc(Cn2cnc(NC(=S)NCCc3ccccc3)n2)c1]	–	–	> 30 µM	0
COc1ccc(C(Cc2ccccc2)NC(=O)N2CCC(O)C(F)(F)C2)cc1 (centres unmarked) [C181, COc1ccc(C(Cc2ccccc2)NC(=O)N2CCC(O)C(F)(F)C2)cc1]	> 50 µM	0	–	–
FC(F)(F)c1ccccc1NC(=S)Nc1ccn(Cc2ccc(Cl)cc2)n1 [C031, FC(F)(F)c1ccccc1NC(=S)Nc1ccn(Cc2ccc(Cl)cc2)n1]	–	–	> 30 µM	0
CC(Nc1c(NCc2ccc3c(c2)OCO3)c(=O)c1=O)c1ccccc1 (centres unmarked) [C013, CC(Nc1c(NCc2ccc3c(c2)OCO3)c(=O)c1=O)c1ccccc1]	–	–	> 50 µM	0
CS(=O)(=O)c1ccc(-c2cccc(NC(=O)[C@H]3CCCO3)c2)nn1 [C101, CS(=O)(=O)c1ccc(-c2cccc(NC(=O)[C@H]3CCCO3)c2)nn1]	–	–	> 50 µM	0
CCOC(=O)NC(=S)Nc1ncccn1 [C045, S=C(NC(OCC)=O)NC1=NC=CC=N1]	–	–	> 30 µM	0
COc1ccc(N(CC(O)CNCCC(C)C)S(=O)(=O)c2ccc(C)cc2)cc1 (centres unmarked) [C248, Cc1ccc(cc1)S(=O)(=O)N(CC(C[NH2+]CCC(C)C)O)c2ccc(cc2)OC]	> 50 µM	0	–	–
CC(O)c1ccc(S(=O)(=O)NC(c2ccccc2)c2nccn2C)cc1 (centres unmarked) [C247, CC(c1ccc(cc1)S(=O)(=O)NC(c2ccccc2)c3nccn3C)O]	> 50 µM	0	–	–
CCN(CC)S(=O)(=O)c1ccc2c(c1)cc(C(=O)NCc1ccc(C)o1)n2C [C102, CCN(CC)S(=O)(=O)c1ccc2c(c1)cc(C(=O)NCc1ccc(C)o1)n2C]	–	–	> 50 µM	0
CCOC(=O)NC(=S)Nc1ccccn1 [C047, S=C(NC1=NC=CC=C1)NC(OCC)=O]	–	–	> 30 µM	0
CC(=O)N1CCC2(CC1)CC(C(=O)O)N(C(=O)c1ccc(C)c3ccccc13)C2 (centres unmarked) [C212, CC(=O)N1CCC2(CC1)CC(C(=O)[O-])N(C(=O)c1ccc(C)c3ccccc13)C2]	> 50 µM	0	–	–
Cc1ccc(S(=O)(=O)N2c3ccccc3CC2CO)cc1[N+](=O)[O-] (centres unmarked) [C266, Cc1ccc(cc1[N+](=O)[O-])S(=O)(=O)N2c3ccccc3CC2CO]	> 50 µM	0	–	–
NC(=S)Nc1n[nH]c2ccccc12 [C049, S=C(NC1=NNC2=C1C=CC=C2)N]	–	–	> 30 µM	0
CCOC[C@H]1CCN(C(=O)Nc2cccn(CC(F)(F)F)c2=O)C1 [C104, CCOC[C@H]1CCN(C(=O)Nc2cccn(CC(F)(F)F)c2=O)C1]	–	–	> 50 µM	0
CC1CCCCN1C(=O)CNc1cc(C(=O)N(C)C)ccc1Cl (centres unmarked) [C074, CC1CCCCN1C(=O)CNc1cc(C(=O)N(C)C)ccc1Cl]	–	–	> 10 µM	0
CCc1ccc(S(=O)(=O)NC2Cc3cc(C(=O)NC(C)C)nn3C2)cc1 (centres unmarked) [C241, CCc1ccc(cc1)S(=O)(=O)NC2Cc3cc(nn3C2)C(=O)NC(C)C]	> 50 µM	0	–	–
O=C(NCc1ccccn1)c1cn2c(n1)C(=O)N(CC1CC1)CC2 [C095, O=C(NCc1ccccn1)c1cn2c([nH+]1)C(=O)N(CC1CC1)CC2]	–	–	> 50 µM	0
Cc1ccc(CN(C(=O)CNc2ccc(C(N)=O)c(C)c2)C2CC2)o1 [C053, Cc1ccc(CN(C(=O)CNc2ccc(C(N)=O)c(C)c2)C2CC2)o1]	–	–	> 10 µM	0

Next, values leading:

IC50 [1]	Decoy – 0 Active – 1 [2]	IC50 [3]	Decoy – 0 Active – 1 [4]	Compound
> 50 µM	0	–	–	Cc1noc(C)c1CNC(=O)COc1ccccc1CO [C172, Cc1noc(C)c1CNC(=O)COc1ccccc1CO]
> 50 µM	0	–	–	NC(=O)Nc1cccc(C(=O)NCc2ccccc2Cl)c1 [C173, NC(=O)Nc1cccc(C(=O)NCc2ccccc2Cl)c1]
–	–	> 50 µM	0	Cc1ocnc1C(=O)N[C@@H]1CC(=O)N(Cc2ccc(F)cc2)C1 [C139, Cc1ocnc1C(=O)N[C@@H]1CC(=O)N(Cc2ccc(F)cc2)C1]
–	–	> 50 µM	0	O=C1C[C@H](NC(=O)CCn2cccn2)CN1 [C145, O=C1C[C@H](NC(=O)CCn2cccn2)CN1]
–	–	> 50 µM	0	C[C@@H](CNC(=O)N[C@H]1CCO[C@@H](C2CC2)C1)c1ccsc1 [C109, C[C@@H](CNC(=O)N[C@H]1CCO[C@@H](C2CC2)C1)c1ccsc1]
–	–	> 50 µM	0	Cc1cccc2c(=O)n(CCC(=O)N[C@@H](c3ccccc3)C(C)C)cnc12 [C131, Cc1cccc2c(=O)n(CCC(=O)N[C@@H](c3ccccc3)C(C)C)cnc12]
–	–	> 50 µM	0	CN(C)C(=O)c1ccc(CN2CCCC[C@H]2CCn2cccn2)o1 [C105, CN(C)C(=O)c1ccc(C[N@H+]2CCCC[C@H]2CCn2cccn2)o1]
–	–	> 50 µM	0	CC(C)[C@@H](Nc1nccc(CCC(F)(F)F)n1)c1nccn1C [C146, CC(C)[C@@H](Nc1nccc(CCC(F)(F)F)n1)c1nccn1C]
> 50 µM	0	–	–	CCc1ccc(C(NC(=O)NC2C=CC(CO)C2)C(C)(C)C)o1 (centres unmarked) [C200, CCc1ccc(C(NC(=O)NC2C=CC(CO)C2)C(C)(C)C)o1]
> 50 µM	0	–	–	COc1ccc(O)c(/C=C(\C#N)C(=O)Nc2cccc(Cl)c2Cl)c1 [C164, COc1ccc(O)c(/C=C(\C#N)C(=O)Nc2cccc(Cl)c2Cl)c1]
> 50 µM	0	–	–	CC(C)C1(CO)CCCN(C(=O)NCc2ccc(Cl)cc2F)C1 (centres unmarked) [C168, CC(C)C1(CO)CCCN(C(=O)NCc2ccc(Cl)cc2F)C1]
> 50 µM	0	–	–	CCc1cc(C(=O)NCC(O)c2ccc(O)cc2)cc(=O)[nH]1 (centres unmarked) [C203, CCc1cc(C(=O)NCC(O)c2ccc(O)cc2)cc(=O)[nH]1]
> 50 µM	0	–	–	CC1CCc2c(F)cccc2C1NC(=O)c1n[nH]c(=O)[nH]1 (centres unmarked) [C222, CC1CCc2c(F)cccc2C1NC(=O)c1n[nH]c(=O)[nH]1]
> 50 µM	0	–	–	Cn1nc(C(=O)N[C@@H]2CCCC[C@@H]2Cc2ccccc2)ccc1=O [C160, Cn1nc(C(=O)N[C@@H]2CCCC[C@@H]2Cc2ccccc2)ccc1=O]
> 50 µM	0	–	–	O=C(NC1CCCCNC1=O)NC1CCSc2ccccc21 (centres unmarked) [C202, O=C(NC1CCCCNC1=O)NC1CCSc2ccccc21]
> 50 µM	0	–	–	O=C(Nc1nc2c(s1)C(=O)CC(C(=O)NC1CCCc3ccccc31)C2)c1ccncc1 (centres unmarked) [C225, O=C(Nc1nc2c(s1)C(=O)CC(C(=O)NC1CCCc3ccccc31)C2)c1ccncc1]
> 50 µM	0	–	–	Cc1cccc(C2(C(=O)NC3CCC(=O)N(C)C3)CCCC2)c1 (centres unmarked) [C220, Cc1cccc(C2(C(=O)NC3CCC(=O)N(C)C3)CCCC2)c1]
> 50 µM	0	–	–	O=S(=O)(NC(c1cccnc1)C1CCOCC1)c1ccc2c(c1)CCO2 (centres unmarked) [C256, c1cc(cnc1)C(C2CCOCC2)NS(=O)(=O)c3ccc4c(c3)CCO4]
–	–	> 50 µM	0	CNC(=O)c1cccc(NC(=O)NCC(C)(C)c2cccs2)c1C [C126, CNC(=O)c1cccc(NC(=O)NCC(C)(C)c2cccs2)c1C]
> 50 µM	0	–	–	O=C(NCc1ccccc1N1CCOCC1)c1nc2ccccc2c(=O)[nH]1 [C201, O=C(NCc1ccccc1N1CCOCC1)c1nc2ccccc2c(=O)[nH]1]
